ChEMBL document CHEMBL1201862, “PubChem BioAssay data set” (2004)
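Method: 48-hour compound exposure of cells in 96-well plates, five concentrations, linear interpolation of endpoints. The concentration for 50% growth inhibition is given as GI50.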 Calls of active or inactive are those of the source. Cut-off read from the data, not from the text of the source: active = GI50 up to about 1.1 µM and inactive = higher.

Assays:
Test in all cases: growth of human tumour cells (NCI), 48 h
IGROV-1 = system: IGROV-1
T47D = system: T47D
OVCAR-3 = system: OVCAR-3
MCF7 = system: MCF7
TK-10 = system: TK-10
UO-31 = system: UO-31
SNB-19 = system: SNB-19
ACHN = system: ACHN
SF-539 = system: SF-539
UACC-62 = system: UACC-62
RXF 393 = system: RXF 393
HL-60 = system: HL-60
U-251 = system: U-251
MDA-MB-231 = system: MDA-MB-231
SF-295 = system: SF-295
SNB-75 = system: SNB-75
A498 = system: A498
NCI-H522 = system: NCI-H522
K562 = system: K562
OVCAR-5 = system: OVCAR-5
HCC 2998 = system: HCC 2998
EKVX = system: EKVX
CCRF-CEM = system: CCRF-CEM
SW-620 = system: SW-620
MDA-MB-435 = system: MDA-MB-435
SK-MEL-5 = system: SK-MEL-5
HOP-62 = system: HOP-62
SN12C = system: SN12C
SK-OV-3 = system: SK-OV-3
DU-145 = system: DU-145
HCT-116 = system: HCT-116
MDA-N = system: MDA-N
NCI-H460 = system: NCI-H460
A549 = system: A549
MOLT-4 = system: MOLT-4
OVCAR-4 = system: OVCAR-4
OVCAR-8 = system: OVCAR-8
COLO 205 = system: COLO 205
KM12 = system: KM12
SK-MEL-2 = system: SK-MEL-2
CAKI-1 = system: CAKI-1
NCI/ADR-RES = system: NCI/ADR-RES
HCT-15 = system: HCT-15
Hs-578T = system: Hs-578T
PC-3 = system: PC-3
NCI-H226 = system: NCI-H226
786-0 = system: 786-0
SF-268 = system: SF-268
M14 = system: M14
Malme-3M = system: Malme-3M
UACC-257 = system: UACC-257
RPMI-8226 = system: RPMI-8226
BT-549 = system: BT-549
SK-MEL-28 = system: SK-MEL-28
LOX IMVI = system: LOX IMVI
NCI-H23 = system: NCI-H23
HOP-92 = system: HOP-92
HT-29 = system: HT-29

COc1ccc(/C=C/c2ccnc3ccccc23)c(OC)c1
GI50 (IGROV-1): 7.87 µM (inactive) | GI50 (T47D): > 10 µM (inactive) | GI50 (OVCAR-3): > 10 µM (inactive) | GI50 (MCF7): 3.07 µM (inactive) | GI50 (TK-10): > 10 µM (inactive) | GI50 (UO-31): > 10 µM (inactive) | GI50 (SNB-19): > 10 µM (inactive) | GI50 (ACHN): 9.75 µM (inactive) | GI50 (SF-539): 4.34 µM (inactive) | GI50 (UACC-62): 5.16 µM (inactive) | GI50 (RXF 393): > 10 µM (inactive) | GI50 (HL-60): 3.61 µM (inactive) | GI50 (U-251): 9.02 µM (inactive) | GI50 (MDA-MB-231): 4.17 µM (inactive) | GI50 (SF-295): 6.18 µM (inactive) | GI50 (SNB-75): 4.23 µM (inactive) | GI50 (A498): 7.87 µM (inactive) | GI50 (NCI-H522): 6.62 µM (inactive) | GI50 (K562): 3.54 µM (inactive) | GI50 (OVCAR-5): > 10 µM (inactive) | GI50 (HCC 2998): 6.82 µM (inactive) | GI50 (EKVX): 5.19 µM (inactive) | GI50 (CCRF-CEM): 4.97 µM (inactive) | GI50 (SW-620): 5.94 µM (inactive) | GI50 (MDA-MB-435): 2.36 µM (inactive) | GI50 (SK-MEL-5): 3.66 µM (inactive) | GI50 (HOP-62): > 10 µM (inactive) | GI50 (SN12C): > 10 µM (inactive) | GI50 (SK-OV-3): > 10 µM (inactive) | GI50 (DU-145): > 10 µM (inactive) | GI50 (HCT-116): 3.56 µM (inactive) | GI50 (MDA-N): 3.41 µM (inactive) | GI50 (NCI-H460): 6.05 µM (inactive) | GI50 (A549): > 10 µM (inactive) | GI50 (MOLT-4): 4.54 µM (inactive) | GI50 (OVCAR-4): > 10 µM (inactive) | GI50 (OVCAR-8): 7.52 µM (inactive) | GI50 (COLO 205): 4.34 µM (inactive) | GI50 (KM12): 6 µM (inactive) | GI50 (SK-MEL-2): 8.51 µM (inactive) | GI50 (CAKI-1): > 10 µM (inactive) | GI50 (NCI/ADR-RES): 3.86 µM (inactive) | GI50 (HCT-15): 6.49 µM | GI50 (Hs-578T): 5.98 µM (inactive) | GI50 (PC-3): 8.38 µM (inactive) | GI50 (NCI-H226): 4.51 µM (inactive) | GI50 (786-0): 9.25 µM (inactive) | GI50 (SF-268): > 10 µM (inactive) | GI50 (M14): > 10 µM (inactive) | GI50 (Malme-3M): 5.69 µM (inactive) | GI50 (UACC-257): > 10 µM (inactive) | GI50 (RPMI-8226): 7.33 µM (inactive) | GI50 (BT-549): 7.18 µM (inactive) | GI50 (SK-MEL-28): > 10 µM (inactive) | GI50 (LOX IMVI): 7.71 µM (inactive)

CC(C)=NNC1=NC(C)(C)P(=O)(NNc2ncccn2)S1 (configuration not stated)
GI50 (IGROV-1): > 100 µM (inactive) | GI50 (T47D): > 100 µM (inactive) | GI50 (OVCAR-3): > 100 µM (inactive) | GI50 (MCF7): > 100 µM (inactive) | GI50 (TK-10): > 100 µM (inactive) | GI50 (UO-31): > 100 µM (inactive) | GI50 (SNB-19): > 100 µM (inactive) | GI50 (ACHN): > 100 µM (inactive) | GI50 (SF-539): > 100 µM (inactive) | GI50 (UACC-62): > 100 µM (inactive) | GI50 (RXF 393): > 100 µM (inactive) | GI50 (U-251): > 100 µM (inactive) | GI50 (MDA-MB-231): > 100 µM (inactive) | GI50 (SF-295): > 100 µM (inactive) | GI50 (A498): > 100 µM (inactive) | GI50 (NCI-H522): > 100 µM (inactive) | GI50 (K562): > 100 µM (inactive) | GI50 (OVCAR-5): > 100 µM (inactive) | GI50 (HCC 2998): > 100 µM (inactive) | GI50 (EKVX): > 100 µM (inactive) | GI50 (SW-620): > 100 µM (inactive) | GI50 (MDA-MB-435): > 100 µM (inactive) | GI50 (SK-MEL-5): > 100 µM (inactive) | GI50 (HOP-62): > 100 µM (inactive) | GI50 (SK-OV-3): > 100 µM (inactive) | GI50 (NCI-H23): > 100 µM (inactive) | GI50 (DU-145): > 100 µM (inactive) | GI50 (HCT-116): > 100 µM (inactive) | GI50 (MDA-N): > 100 µM (inactive) | GI50 (NCI-H460): > 100 µM (inactive) | GI50 (A549): > 100 µM (inactive) | GI50 (MOLT-4): > 100 µM (inactive) | GI50 (OVCAR-4): > 100 µM (inactive) | GI50 (OVCAR-8): > 100 µM (inactive) | GI50 (SK-MEL-2): > 100 µM (inactive) | GI50 (CAKI-1): > 100 µM (inactive) | GI50 (HCT-15): > 100 µM | GI50 (Hs-578T): > 100 µM (inactive) | GI50 (PC-3): > 100 µM (inactive) | GI50 (786-0): > 100 µM (inactive) | GI50 (SF-268): > 100 µM (inactive) | GI50 (HOP-92): > 100 µM (inactive) | GI50 (M14): > 100 µM (inactive) | GI50 (UACC-257): > 100 µM (inactive) | GI50 (BT-549): > 100 µM (inactive) | GI50 (HT-29): > 100 µM (inactive) | GI50 (SK-MEL-28): > 100 µM (inactive)
